pEC50: −log10 of the molar value. Like-named read-outs stand apart in the source and are kept apart here.
System: HCMV (AD169 strain in HFF cells)
Test: CPE (cytopathic effect) assay for HCMV
Type: cell-based, Human Cytomegalovirus
Procedure: Human foreskin fibroblast (HFF) cells prepared from human foreskin tissue were obtained from the University of Alabama at Birmingham tissue procurement facility with approval from its IRB. The tissue was incubated at 4° C. for 4 h in Clinical Medium consisting of minimum essential media (MEM) with Earl's salts supplemented with 10% fetal bovine serum (FBS) (Hyclone, Inc. Logan UT), L-glutamine, fungizone, and vancomycin. Tissue was then placed in phosphate buffered saline (PBS), minced, rinsed to remove the red blood cells, and resuspended in trypsin/EDTA solution. The tissue suspension was incubated at 37° C. and gently agitated to disperse the cells, which were collected by centrifugation. Cells were resuspended in 4 ml Clinical Medium and placed in a 25 cm^2 flask and incubated at 37° C. in a humidified CO2 incubator for 24 h. The media was then replaced with fresh Clinical Medium and the cell growth was monitored daily until a confluent monolayer had formed. The HFF cells were then expanded through serial passages in standard growth medium of MEM with Earl's salts supplemented with 10% FBS, L-glutamine, penicillin, and gentamycin.
Akata cells were obtained from Louisiana State University, Baton Rouge, LA. The HCMV strain AD169 was obtained from the American Type Culture Collection (ATCC, Manassas, VA). Akata cells latently infected with EBV were obtained from Louisiana State University, Baton Rouge, LA.
Each experiment that evaluates the antiviral activity of compounds includes both positive and negative control compounds to ensure the performance of each assay. Concurrent assessment of cytotoxicity was also performed for each study in the same cell line and with the same compound exposure.
Assays were performed in monolayers as described.37 Cells were seeded in 384 well plates and incubated for 24 h to allow the formation of confluent monolayers. Dilutions of test drug were prepared directly in the plates and the monolayers infected at a predetermined MOI based on virus used. After incubation, cytopathology was determined by the addition of CellTiter-Glo (CTG) reagent. […] Toxicity was measured using CTG as above.

## CC(C)C(=O)OCC1=C[C@@H](O)[C@H](n2ccc(N)nc2=O)O1 [Compound 8, 3′-Deoxy-3′,4′-didehydro-5′-O-isobutyroyl-cytidine]
Human betaherpesvirus 5, AD169, HFF, approximate, read-out: EC50 against HCMV
  pEC50: ~7.70
Human betaherpesvirus 5, AD169 strain in HFF cells, Table 1, read-out: HCMV EC50
  pEC50: 7.70

From patent US20240287123A1 (Victoria Link Limited, priority 2021, published 2024)
